From PubChem BioAssay AID248 (DTP/NCI, 2004)
Several values for one entry are separate records, joined by “and”; a condition that tells them apart may be missing. Identical values can stand only once. Toxic doses and inconclusive results are not listed. No stated cut-off is given here; in the data, active means T/C of 150% or more; inactive means T/C below 125%.

Test system: L1210 leukemia ip in BDF1 mice, survival T/C
Assay: NCI In Vivo Anticancer Drug Screen. Data for tumor model L1210 Leukemia (intraperitoneal) in B6D2F1 (BDF1) mice
Settings: endpoint: mean survival time, higher = longer survival
Summary of the method: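 Mice bearing the transplanted tumor received compound or vehicle. Survival of the treated group was divided by that of the vehicle-treated control group to give the ratio.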

[1] = dose: 100.0 mg/kg/injection, schedule: Q04DX003 (ip), vehicle: saline with Tween-80
[2] = dose: 100.0 mg/kg/injection, schedule: Q04DX003 (ip), vehicle: saline
[3] = dose: 200.0 mg/kg/injection, schedule: Q04DX003 (ip), vehicle: saline
[4] = dose: 400.0 mg/kg/injection, schedule: Q04DX003 (ip), vehicle: saline
[5] = dose: 50.0 mg/kg/injection, schedule: Q01DX009 (ip), vehicle: saline
[6] = dose: 100.0 mg/kg/injection, schedule: Q01DX001 (ip), vehicle: saline
[7] = dose: 200.0 mg/kg/injection, schedule: Q01DX001 (ip), vehicle: saline
[8] = dose: 400.0 mg/kg/injection, schedule: Q01DX001 (ip), vehicle: saline
[9] = dose: 400.0 mg/kg/injection, schedule: Q01DX009 (ip), vehicle: saline
[10] = dose: 50.0 mg/kg/injection, schedule: Q01DX009 (ip), vehicle: Klucel (hydroxypropylcellulose) (HPC)
[11] = dose: 100.0 mg/kg/injection, schedule: Q01DX009 (ip), vehicle: Klucel (hydroxypropylcellulose) (HPC)
[12] = dose: 100.0 mg/kg/injection, schedule: Q01DX009 (ip), vehicle: saline
[13] = dose: 100.0 mg/kg/injection, schedule: Q01DX009 (ip), vehicle: saline with Tween-80
[14] = dose: 200.0 mg/kg/injection, schedule: Q01DX009 (ip), vehicle: saline with Tween-80
[15] = dose: 75.0 mg/kg/injection, schedule: Q01DX001 (ip), vehicle: saline
[16] = dose: 150.0 mg/kg/injection, schedule: Q01DX001 (ip), vehicle: saline
[17] = dose: 100.0 mg/kg/injection, schedule: Q01DX001 (ip), vehicle: other
[18] = dose: 100.0 mg/kg/injection, schedule: Q04DX003 (ip), vehicle: Klucel (hydroxypropylcellulose) (HPC)
[19] = dose: 200.0 mg/kg/injection, schedule: Q04DX003 (ip), vehicle: Klucel (hydroxypropylcellulose) (HPC)
[20] = dose: 400.0 mg/kg/injection, schedule: Q04DX003 (ip), vehicle: Klucel (hydroxypropylcellulose) (HPC)
[21] = dose: 200.0 mg/kg/injection, schedule: Q04DX003 (ip), vehicle: saline with Tween-80
[22] = dose: 400.0 mg/kg/injection, schedule: Q04DX003 (ip), vehicle: saline with Tween-80

Measured: T/C

CCN(CCO)Cc1cccc2ccccc12
inactive: dose: 25.0 mg/kg/injection, schedule: Q04DX003 (ip), vehicle: saline 97 % of control | dose: 50.0 mg/kg/injection, schedule: Q04DX003 (ip), vehicle: saline 101 % of control | [1] 98 % of control | [2] 101 % of control

CCCCCCCC/C=C\CCCCCCCC(=O)OCCCCCCCCCCCCCCC
inactive: dose: 100.0 mg/kg/injection, schedule: Q01DX009 (ip), vehicle: other 96 % of control | dose: 200.0 mg/kg/injection, schedule: Q01DX009 (ip), vehicle: other 96 % of control | dose: 400.0 mg/kg/injection, schedule: Q01DX009 (ip), vehicle: other 96 % of control

Clc1ccc2nc(CI)c(CI)nc2c1
inactive: dose: 6.25 mg/kg/injection, schedule: Q01DX009 (ip), vehicle: acetone 102 % of control | dose: 12.5 mg/kg/injection, schedule: Q01DX009 (ip), vehicle: acetone 102 % of control | dose: 12.5 mg/kg/injection, schedule: Q04DX003 (ip), vehicle: acetone 104 % of control | dose: 25.0 mg/kg/injection, schedule: Q04DX003 (ip), vehicle: acetone 96 % of control

CCCCCCNC(C)(C)[P+](=O)O
inactive: [2] 105 % of control | [3] 108 % of control | [4] 102 % of control

CCCCCCCSc1ncnc2c1ncn2CO
inactive: [5] 104 % of control | dose: 80.0 mg/kg/injection, schedule: Q01DX009 (ip), vehicle: saline 107 % of control | [6] 101 % of control | dose: 117.0 mg/kg/injection, schedule: Q01DX009 (ip), vehicle: other 114 % of control | dose: 120.0 mg/kg/injection, schedule: Q01DX009 (ip), vehicle: saline 104 % of control | [7] 95 % of control | [8] 115 % of control
active: [9] 164 % of control

CCOC(=O)c1[nH]c(C(=O)O)c(CCC(=O)OC)c1C
inactive: [10] 110 % of control | dose: 100.0 mg/kg/injection, schedule: Q01DX001 (ip), vehicle: Klucel (hydroxypropylcellulose) (HPC) 93 % of control | [11] 90 % of control | dose: 200.0 mg/kg/injection, schedule: Q01DX001 (ip), vehicle: Klucel (hydroxypropylcellulose) (HPC) 98 % of control | dose: 300.0 mg/kg/injection, schedule: Q01DX009 (ip), vehicle: Klucel (hydroxypropylcellulose) (HPC) 100 % of control | dose: 400.0 mg/kg/injection, schedule: Q01DX001 (ip), vehicle: Klucel (hydroxypropylcellulose) (HPC) 97 % of control

O=CC(Cl)Cl
inactive: [12] 92 % of control | dose: 200.0 mg/kg/injection, schedule: Q01DX009 (ip), vehicle: saline 110 % of control | [9] 108 % of control

CCN(CC)C(=O)CCc1ccccc1
inactive: [13] 108 % of control | [14] 100 % of control

Cc1cc([N+](=O)[O-])ccc1NC(=O)c1ccccc1
inactive: dose: 100.0 mg/kg/injection, schedule: Q04DX003 (ip), vehicle: acetone 94 % of control | dose: 200.0 mg/kg/injection, schedule: Q04DX003 (ip), vehicle: acetone 100 % of control | dose: 400.0 mg/kg/injection, schedule: Q04DX003 (ip), vehicle: acetone 93 % of control

COc1cc(NC(=O)O/N=C/c2ccccn2)cc(OC)c1OC
inactive: [13] 91 % of control | [14] 92 % of control

OCC1OC(c2ccccc2)OC1C1OC(c2ccccc2)OC1CO (centres undefined)
inactive: [6] 98 % of control | [7] 96 % of control | [8] 98 % of control

CCC(CC)(c1ccccc1)C(O)c1ccccc1 (centres undefined)
inactive: dose: 50.0 mg/kg/injection, schedule: Q01DX001 (ip), vehicle: saline 97 % of control | [6] 97 % of control | [7] 103 % of control | [8] 101 % of control

CC(=O)NC1CCC(/C=C(\C#N)C2CCC(C)CC2)CC1 (centres undefined)
inactive: dose: 100.0 mg/kg/injection, schedule: Q04DX002 (ip), vehicle: saline with Tween-80 87 % of control | dose: 200.0 mg/kg/injection, schedule: Q04DX002 (ip), vehicle: saline with Tween-80 93 % of control

Nc1cc2c(cc1Br)-c1c(C(=O)O)cccc1C2=O
inactive: dose: 75.0 mg/kg/injection, schedule: Q01DX001 (ip), vehicle: carboxymethylcellulose (CMC) 101 % of control | dose: 150.0 mg/kg/injection, schedule: Q01DX001 (ip), vehicle: carboxymethylcellulose (CMC) 95 % of control | dose: 300.0 mg/kg/injection, schedule: Q01DX001 (ip), vehicle: carboxymethylcellulose (CMC) 98 % of control

C1=CN2CCCN3C=CC=c4ccc(c2c43)=C1
inactive: dose: 7.5 mg/kg/injection, schedule: Q01DX009 (ip), vehicle: saline 100 % of control | dose: 15.0 mg/kg/injection, schedule: Q01DX009 (ip), vehicle: saline 98 % of control

CCN(CC)CCN(C)CC(=O)Nc1cccc(Cl)c1C
inactive: dose: 25.0 mg/kg/injection, schedule: Q01DX009 (ip), vehicle: saline 106 % of control | [5] 93 % of control | [15] 101 % of control | [12] 98 % of control | [16] 102 % of control | dose: 150.0 mg/kg/injection, schedule: Q01DX009 (ip), vehicle: saline 100 % of control

Cc1ccc(NC(=O)c2ccccc2-c2ccccc2C(=O)Nc2ccc(C)cc2)cc1
inactive: [17] 91 % of control

NN1CCCC1C(=O)O (centres undefined)
inactive: [15] 97 % of control | [16] 92 % of control

CCOC(=O)c1nc2c(OC)nn(O)cc-2c1[N+](=O)[O-]
inactive: dose: 12.5 mg/kg/injection, schedule: Q04DX002 (ip), vehicle: saline with Tween-80 92 % of control | dose: 25.0 mg/kg/injection, schedule: Q04DX002 (ip), vehicle: saline with Tween-80 99 % of control

CC1(C)Cc2cccc(C=C(C#N)C#N)c2O1
inactive: [18] 106 % of control | [19] 97 % of control | [20] 113 % of control

O=C1CC2=CC3C=CC(N1)C2C=C3 (centres undefined)
inactive: [1] 109 % of control | [21] 106 % of control | [22] 109 % of control

O=[N+]([O-])c1cc([N+](=O)[O-])c(NN(c2ccccc2)c2cccc3ccccc23)c([N+](=O)[O-])c1
inactive: [10] 101 % of control | [11] 101 % of control | [18] 96 % of control | dose: 200.0 mg/kg/injection, schedule: Q01DX009 (ip), vehicle: Klucel (hydroxypropylcellulose) (HPC) 102 % of control | [19] 94 % of control | dose: 400.0 mg/kg/injection, schedule: Q01DX009 (ip), vehicle: Klucel (hydroxypropylcellulose) (HPC) 98 % of control | [20] 94 % of control

COc1cccc(OC)c1-c1oc2ccccc2c(=O)c1O
inactive: dose: 100.0 mg/kg/injection, schedule: Q01DX009 (ip), vehicle: acetone 94 % of control | [2] 95 % of control | dose: 200.0 mg/kg/injection, schedule: Q01DX009 (ip), vehicle: acetone 95 % of control | [3] 94 % of control | dose: 400.0 mg/kg/injection, schedule: Q01DX009 (ip), vehicle: acetone 95 % of control | [4] 94 % of control

CC1([N+](=O)[O-])COP(=O)(NCC2CCCO2)OC1 (centres undefined)
inactive: dose: 50.0 mg/kg/injection, schedule: Q01DX001 (ip), vehicle: carboxymethylcellulose (CMC) 98 % of control | dose: 100.0 mg/kg/injection, schedule: Q01DX001 (ip), vehicle: carboxymethylcellulose (CMC) 104 % of control | dose: 200.0 mg/kg/injection, schedule: Q01DX001 (ip), vehicle: carboxymethylcellulose (CMC) 104 % of control | dose: 400.0 mg/kg/injection, schedule: Q01DX001 (ip), vehicle: carboxymethylcellulose (CMC) 93 % of control

CCOC(=O)C1C(=O)C(C(=O)Nc2ccccc2)C(=O)C(C(=O)OCC)C1c1ccc(O)cc1 (centres undefined)
inactive: [17] 91 % of control and 97 % of control | [13] 102 % of control and 100 % of control | [1] 103 % of control and 97 % of control | dose: 200.0 mg/kg/injection, schedule: Q01DX001 (ip), vehicle: other 94 % of control and 91 % of control | [14] 96 % of control and 100 % of control | [21] 97 % of control | dose: 400.0 mg/kg/injection, schedule: Q01DX009 (ip), vehicle: saline with Tween-80 100 % of control and 101 % of control | [22] 97 % of control and 96 % of control
